Measured values: patent US20120302546A1, “NOVEL SULFAMIDES EXHIBITING NEUROPROTECTIVE ACTION AND METHODS FOR USE THEREOF” (FOX CHASE CHEMICAL DIVERSITY CENTER, INC., priority 2010, published 2012)

Legend:
Hippocampal Cultures [1] = assay: Neuroprotection from glutamate excitotoxicity, propidium iodide cell death assay; format: cell-based, rat; conditions: for EC50: Rattus norvegicus, Hippocampal Cultures, read-out: NP from Glutamate PI EC50
Protocol: Hydroxyethyl sulfamides attenuate glutamate-mediated cell death: As an example of HES compounds that prevent cell death associated with glutamate, compound II is shown to attenuate an increase in propidium iodide (PI) produced by acute treatment with glutamate in FIG. 4. For these studies, day 20 hippocampal cultures derived from E18 rats were treated for 5 min with 30 μM glutamate. Following removal of the glutamate, cultures were treated with various concentrations of compound II and the propidium iodide method for measuring cell death was conducted 24 hours after the initiation of treatment. The dotted line labeled “control” represents the mean PI value for control culture receiving no treatment. The dotted line labeled “carisbamate” represents the mean PI value for the reference compound carisbamate, a putative neuroprotective anticonvulsant. The amount of carisbamate used was 100 μM and this concentration had the maximally observed efficacy for this compound. RFU is an abbreviation for relative fluorescent units. Day 15 is the number of days that the cultures were maintained in vitro before conducting the experiment.
(§1) Cell cultures: All compounds are screened with dissociated hippocampal cultures derived from embryonic day 18 rats as the primary test system. With this preparation, primary neurons are used to test for toxicity as well as neuroprotection in a highly relevant experimental system to epilepsy. In brief, hippocampal tissue are obtained commercially through Brain Bits (Springfield, Ill.) and cultures prepared as previously described by Brewer (Brewer, G. J. Serum-free B27/neurobasal medium supports differentiated growth of neurons from the striatum, substantia nigra, septum, cerebral cortex, cerebellum and dentate gyms, J. Neurosci. Res. 1995, 42, 674-683.). The hippocampal neurons are platted at low density (10,000 cell/well) in a 96-well format and maintained in serum-free medium consisting of Neurobasal Medium supplemented with B27 and GlutaMAX (Gibco). Pre-coated poly-L-lysine coated plates are used because of the preferential adherence and survival of hippocampal neurons on this matrix support.
(§2) Carboxyfluorescein (CFDA) was used a vital stain for all cell toxicity and neuroprotection studies. With the use of the CytoFluor fluorimeter, the CFDA assay was employed to assess the viability of neurons. CFDA is a dye that becomes fluorescent upon cell entry and cleavage by cytosolic esterases (Petroski, R. E.; Geller, H. M Selective labeling of embryonic neurons cultures on astrocyte monolayers with 5(6)-carboxyfluorescein diacetate (CFDA). J. Neurosci. Methods 1994, 52, 23-32.). Neuronal specificity is obtained relative to astrocytes because the cleaved dye is extruded extracellularly by glia with time, while dye in neurons remains intracellular. […] To further assess the culture responses, a propidium iodide method was used as previously described (Sarafian, T. A.; Kouyoumjian, S.; Tashkin, D.; Roth, M. D. Synergistic cytotoxicity of 9-tetrahydrocannabianol and butylated hydroxyanisole, Tox. Letters, 2002. 133, 171-179.) to measure the number of dead cells. Propidium iodide becomes fluorescent when binding to the DNA of dead cells. Cultures were treated on day 2 with the test agent and then the two assays were conducted after a […] test period. For all assays, a 96-well format was used. For the screen, log concentration-effect studies were conducted from 10 nM to 1 mM with 8 replications. The duration of the test period was five days. Cultures were given a complete change of medium prior to the initiation of the treatment period.
(§3) Potent neuroprotection is the distinguishing characteristic that separates this program's anticonvulsants from all other commercial drugs for epilepsy. The experimental details and the rationale for the implemented assays are essential in differentiating these compounds from that of others. […]

Hippocampal Cultures [2] = assay: Neuroprotection from glutamate excitotoxicity, CFDA neuronal viability assay; format: cell-based, rat; conditions: for EC50: Rattus norvegicus, 30 μM glutamate, Hippocampal Cultures, read-out: NP from Glutamate CFDA EC50
Protocol: Pharmacology: Hydroxyethyl sulfamides attenuate glutamate-mediated neuronal viability. As an example, compound II, shown above, is shown to attenuate a decrease in carboxyfluorescein diacetate (CFDA) produced by acute treatment with glutamate in FIG. 1. For these studies, day 20 hippocampal cultures derived from E18 rats were treated for 5 min with 30 μM glutamate. Following removal of the glutamate, cultures were treated with various concentrations of compound II and the CFDA neuronal viability assay was conducted 24 hours after the initiation of treatment. The dotted line labeled “control” represents the mean CFDA value for control culture receiving no treatment. The dotted line labeled “carisbamate” represents the mean CFDA value for the reference compound carisbamate, a putative neuroprotective, anticonvulsant. For the CFDA measurements, RFU is the abbreviation for relative fluorescent units. The reference anticonvulsant compound carisbamate was tested at 100 μM, as lower concentrations were ineffective.
as §1, §2
as §3, with “others. The central objective of all neuroprotective assays was their relevancy to excitotoxicity and oxidative stress related to epilepsy.” for “others.”

Hippocampal Cultures [3] = assay: Neuroprotection from hydrogen peroxide (oxidative stress), propidium iodide assay; format: cell-based; conditions: Rattus norvegicus, 10 μM Hydrogen Peroxide, read-out: NP from HP PI EC50
From the text: as §1
(§4) Potent neuroprotection is the distinguishing characteristic that separates this program's anticonvulsants from all other commercial drugs for epilepsy. The experimental details and the rationale for the implemented assays are essential in differentiating these compounds from that of others. The central objective of all neuroprotective assays was their relevancy to excitotoxicity and oxidative stress related to epilepsy. Both the amount of glutamate and hydrogen peroxide used in the assays, as well as the time of treatment and duration of the experiment, were designed to be relevant to epilepsy. Further, all time parameters employed in these studies were empirically determined to be within the limits of reversible toxic events, yet using amounts of glutamate and hydrogen peroxide that were relevant to the disease. In regard to glutamate toxicity, a critical feature was the duration of treatment of the hippocampal neurons. The rational for using a short 5 min treatment with glutamate was based on the observation of Randall and Thayer (Randall, R. D.; Thayer, S. A. Glutamate-induced calcium transient triggers calcium overload and neurotoxicity in rat hippocampal neurons, J. Neurosci. 1992, 12, 1882-1895). […] The rationale is that this intense burst of glutamate and resulting calcium overload is relevant to seizures and therefore was important data to capture in the screening assay. The amount of glutamate (30 μM) employed in our screening was based on the basal levels of glutamate observed in microdialysis measurements of hippocampus from epileptogenic patients (Cavus et al. Decreased hippocampal volume on MRI is associated with increased extracellular glutamate in epilepsy patients, Epilepsia, 2008, 49, 1358-1366.). In regard to hydrogen peroxide, the amount employed (10 μM) was detected in the hippocampus of rats after kainate-induced status epilepticus (Jarrett et. al., Mitochondrial DNA damage and impaired base excision repair during epileptogenesis, Neurobiol. Dis. 2008, 30, 130-138). To produce neural damage and death with these amounts of glutamate and hydrogen peroxide, the cultures were changed to a medium with significant depletion of antioxidant components in the defined medium supplement B-27 just prior to treatment with the compounds. This was performed to obtain a significant and reproducible toxic signal in the hippocampal neurons and because loss of antioxidant control may be a component of epileptogenesis (Waldbaum and Patel, Mitochondria, oxidative stress and temporal lobe epilepsy, Epilepsy Res. 2010 88, 23-45.; Wu et al., Mitochondrial DNA mutation-elicited oxidative stress, oxidative damage, and altered gene expression in cultured cells of patients with MERRF syndrome, Mol. Neurobiol. 2010, 41, 256-266.). Neuroprotection studies with hydrogen peroxide were conducted with cultures that were between day 12 and day 18. Studies of neuroprotection glutamate were conducted between day 19 and day 22. […]

Hippocampal Cultures [4] = assay: Neuroprotection from hydrogen peroxide (oxidative stress), CFDA assay; format: cell-based; conditions: Rattus norvegicus, 10 μM Hydrogen Peroxide, read-out: NP from HP CFDA EC50
From the text: as §1, §4

[5] = day 20 hippocampal cultures, 5 min 30 μM glutamate, CFDA assay 24 hours after initiation of treatment (FIG. 1-3)

## NS(=O)(=O)NCC(O)c1ccccc1Cl (stereo not drawn) [compound II]
Hippocampal Cultures [1]; day 20 hippocampal cultures, 5 min 30 μM glutamate, PI 24 hours after initiation of treatment (FIG. 4)
  effect on glutamate-mediated increase in cell death (propidium iodide): attenuate
Hippocampal Cultures [2]; [5]
  effect on glutamate-mediated decrease in neuronal viability (CFDA): attenuate

## NS(=O)(=O)NCC(O)c1ccccc1Cl (stereo not drawn) [Example 1, 2-(2-Chlorophenyl)-2-hydroxyethylsulfamide]
Hippocampal Cultures [1]; 30 μM glutamate
  EC50: 100 µM
Hippocampal Cultures [2]
  EC50: 30 µM

## NS(=O)(=O)NC[C@H](O)c1ccccc1Cl [Example 13, (R)-2-(2-Chlorophenyl)-2-hydroxyethylsulfamide]
Hippocampal Cultures [3]
  EC50: > 300 µM
Hippocampal Cultures [4]
  EC50: 300 µM
Hippocampal Cultures [1]; 30 μM glutamate
  EC50: 10 µM
Hippocampal Cultures [2]
  EC50: 0.01 µM

## NS(=O)(=O)NCC(O)c1csc2ccccc12 (stereo not drawn) [Example 7, 2-(benzothiophen-3-yl)-2-hydroxyethylsulfamide]
Hippocampal Cultures [1]; 30 μM glutamate
  EC50: > 300 µM
Hippocampal Cultures [2]
  EC50: 30 µM

## NS(=O)(=O)N1CC(O)(c2csc3ccccc23)C1 [Example 9, 3-Benzo[b]thiophen-3-yl-3-hydroxy-azetidine-1-sulfonamide]
Hippocampal Cultures [3]
  EC50: > 300 µM
Hippocampal Cultures [4]
  EC50: > 300 µM
Hippocampal Cultures [1]; 30 μM glutamate
  EC50: 1 µM
Hippocampal Cultures [2]
  EC50: 0.1 µM

## NS(=O)(=O)NC[C@@H](O)c1ccccc1Cl [Example 12, (S)-2-(2-Chlorophenyl)-2-hydroxyethylsulfamide]
Hippocampal Cultures [3]
  EC50: > 300 µM
Hippocampal Cultures [4]
  EC50: 30 µM
Hippocampal Cultures [1]; 30 μM glutamate
  EC50: 10 µM
Hippocampal Cultures [2]
  EC50: 30 µM

## NS(=O)(=O)NCC(O)c1ccccc1F (stereo not drawn) [Example 6, 2-(2-fluorophenyl)-2-hydroxyethylsulfamide]
Hippocampal Cultures [3]
  EC50: 0.01 µM
Hippocampal Cultures [4]
  EC50: 10 µM
Hippocampal Cultures [1]; 30 μM glutamate
  EC50: 10 µM
Hippocampal Cultures [2]
  EC50: 100 µM

## NS(=O)(=O)NCC(O)c1ccsc1 (stereo not drawn) [Example 3, 2-(thiophen-3-yl)-2-hydroxyethylsulfamide]
Hippocampal Cultures [3]
  EC50: 30 µM
Hippocampal Cultures [4]
  EC50: 30 µM
Hippocampal Cultures [1]; 30 μM glutamate
  EC50: 30 µM
Hippocampal Cultures [2]
  EC50: > 300 µM

## CC(O)(CNS(N)(=O)=O)c1ccccc1Cl (stereo not drawn) [Example 8, 2-(2-chlorophenyl)-2-methyl-2-hydroxyethylsulfamide]
Hippocampal Cultures [3]
  EC50: 0.1 µM
Hippocampal Cultures [4]
  EC50: 100 µM
Hippocampal Cultures [1]; 30 μM glutamate
  EC50: 300 µM
Hippocampal Cultures [2]
  EC50: > 300 µM

## NC(=O)OC[C@@H](O)c1ccccc1Cl [carisbamate, reference compound]
Hippocampal Cultures [1]; hippocampal cultures, 30 μM glutamate
  concentration with the maximally observed efficacy (propidium iodide): 100 µM
Hippocampal Cultures [2]; concentrations lower than 100 μM
  effect on glutamate-mediated decrease in neuronal viability (CFDA): ineffective

## NS(=O)(=O)NCC(O)c1cc(Cl)ccc1Cl (stereo not drawn) [Example 5, 2-(2,5-dichlorophenyl)-2-hydroxyethylsulfamide]
Hippocampal Cultures [3]
  EC50: > 300 µM
Hippocampal Cultures [4]
  EC50: > 300 µM
Hippocampal Cultures [1]; 30 μM glutamate
  EC50: 30 µM
Hippocampal Cultures [2]
  EC50: > 300 µM

## NS(=O)(=O)NCC(O)c1cc2ccccc2s1 (stereo not drawn) [Example 4, 2-(benzothiophen-2-yl)-2-hydroxyethylsulfamide]
Hippocampal Cultures [3]
  EC50: 30 µM
Hippocampal Cultures [4]
  EC50: 100 µM
Hippocampal Cultures [1]; 30 μM glutamate
  EC50: 10 µM
Hippocampal Cultures [2]
  EC50: 100 µM

## NS(=O)(=O)NCC(O)c1cccc(Cl)c1 (stereo not drawn) [Example 2, 2-(3-Chlorophenyl)-2-hydroxyethylsulfamide]
Hippocampal Cultures [3]
  EC50: 100 µM
Hippocampal Cultures [4]
  EC50: 100 µM
Hippocampal Cultures [1]; 30 μM glutamate
  EC50: > 300 µM
Hippocampal Cultures [2]
  EC50: > 300 µM

## NS(=O)(=O)NCC(O)c1csc2ccccc12 (stereo not drawn) [compound IV]
Hippocampal Cultures [2]; [5]
  effect on glutamate-mediated decrease in neuronal viability (CFDA): efficacious

## NS(=O)(=O)NCC(O)c1ccccc1F (stereo in doubt) [Example 11, (R)-3-(2-Fluorophenyl)-2-hydroxyethylsulfamide]
Hippocampal Cultures [3]
  EC50: 300 µM
Hippocampal Cultures [4]
  EC50: 300 µM

## NS(=O)(=O)NCC(O)c1ccccc1F (stereo in doubt) [Example 10, (S)-2-(2-Fluorophenyl)-2-hydroxyethylsulfamide]
Hippocampal Cultures [3]
  EC50: 0.1 µM
Hippocampal Cultures [4]
  EC50: 1 µM
Hippocampal Cultures [1]; 30 μM glutamate
  EC50: 0.1 µM
Hippocampal Cultures [2]
  EC50: 300 µM
